Source: US11040052B2, “Methods and pharmaceutical compositions for modulating autophagy in a subject in need thereof” (INSERM (INSTITUT NATIONAL DE LA SANTE ET DE LA RECHERCHE …, priority 2013, dated 2021)
“Also recorded” adds a separate entry of the source.

Tests used:
cellular ATP levels = test: Cellular ATP levels; format: cell-based; details: starved cells
[1] = system: U2OS cells stably expressing GFP-LC3; test: Microinjection of AcCoA or CoA into the cytoplasm; format: cell-based, human; details: 10 mM injected; for Hydroxycitrate-induced autophagy after microinjection: HC-treated cells
Description: For microinjection, U2Os cells were cultured overnight on glass coverslips before injection. The setup for the injection itself was as follows: 10 mM CoA or AcCoA were injected in PBS for 0.2 s under a pressure of 150 hPa, using a Microinjector equipment (Eppendorf, Hamburg, Germany). Then cells were culture for 3 h in the presence of 100 nM bafilomycin A1 (BafA1) and fixed for fluorescence microscopy, as described below.
For microinjection, U2OS cells were cultured overnight on culture dishes before injection. The setup for the injection itself was as follows: 10 mM CoA or AcCoA in PBS were injected for 0.2 s under an injection pressure of 150 hPa and a compensatory pressure of 9 hPa, using a microinjector (Eppendorf, Hamburg, Germany). Before injection, cells were cultured for 2 h in the presence of 100 nM bafilomycin A1 (BafA1) in control medium and in presence of 20 mm Hydroxycitrate. One hour after injection, cells were fixed with 4% PFA and analyzed by fluorescent and automated videomicroscopy.

[2] = system: MPA/DMBA induced mammary tumors; test: MPA/DMBA induced mammary tumor; format: in vivo, mice; details: mouse, in vivo
Description: Six-week-old female Balb/c mice underwent surgical implantation of slow-release MPA (Medroxyprogesterone Acetate) pellets (50 mg, 90-day release; Innovative Research of America) subcutaneously on the right flank. 200 uL of 5 mg/mL DMBA (Dimethylbenzantracene)
(Sigma Aldrich) dissolved in Corn Oil was administered by oral gavage six times during 8 weeks. Tumor formation was monitored by palpation. When tumors became palpable, mice were assigned to following groups of treatment: PBS, HCA, MTX, MTX plus HCA and the MTX plus HCA upon CD4/CD8 lymphocytes depletion. Combinatorial groups were treated as previously described, whereas for CD4/CD8 depletion, mice were intraperitoneally administrated with 500 μg of anti CD4 and CD8 antibodies the day before the onset of the treatment.

[3] = system: intracellular amino acid levels; test: Intracellular amino acid levels by mass spectrometry; format: cell-based; details: starved cells
Description: Profiling of intracellular metabolites was performed on a RRLC 1260 system (Agilent Technologies) coupled to a QTOF 6520 (Agilent) equipped with an electrospray source operating in positive ion and full scan mode from 100 to 1000 Da. The gas temperature was set at 350° C. with a gas flow of 10 L·min^1. The capillary voltage was set at 4.0 kV, and the fragmentor at 150 V. Two reference masses were used to maintain the mass accuracy during analysis: 121.050873 (C5H4N4) and 922.009798 (C18H18O6N3P3F24). Five μL of sample were injected on a 150 mm×2.1 mm 3.5 μm SB Aq column (Agilent) with a pre-column 30 mm×2.1 mm 3.5 μm Eclipse plus (Agilent). The gradient mobile phase consisted of water with 10 mmol/L of ammonium acetate and 0.01% of acetic acid (A) and acetonitrile (B). Initial composition of mobile phase was 2% of B, followed by an increase to 95% of B in 10 min. The flow rate was set to 0.3 mL·min^−1.

MCA205 tumor = test: Growth of transplantable tumors with chemotherapy; format: in vivo, mice; details: for tumor growth, combined with MTX: immunocompetent wild type mice, agent given before and with mitoxanthrone; for tumor growth, combined with MTX, immunodeficient mice: nu/nu (nude athymic) mice
Description: (§1) C57BL/6 mice (Charles River Laboratory, Lentilly, France) were bred and maintained according to both the FELASA and the Animal Experimental Ethics Committee Guidelines (Val de Marne, France). Mice were housed in a temperature-controlled environment with 12 h light/dark cycles and received food and water ad libitum. For HC-related experiments, mice were injected intraperitoneally with a single 100 mg/kg dose and 6 h later were sacrificed and tissues were immediately frozen in liquid nitrogen. For DCA- and DMKG-related experiments, mice were subjected to 24 h starvation and injected intraperitoneally each 8 h with a 100 mg/kg of either DCA or DMKG solution prepared in PBS. After 24 h of starvation, mice were sacrificed and tissues were immediately frozen in liquid nitrogen after extraction and homogenized two cycles for 20 s at 5,500 rpm using Precellys 24 tissue homogenator (Bertin Technologies, Montigny-le-Bretonneux, France) in a 20 mM Tris buffer (pH 7.4) containing 150 mM NaCl, 1% Triton X-100, 10 mM EDTA and Complete® protease inhibitor cocktail (Roche Applied Science). Tissue extracts were then centrifuged at 12,000 g at 4° C. and supernatants were collected. Protein concentration in the supernatants was evaluated by the bicinchoninic acid technique (BCA protein assay kit, Pierce Biotechnology, Rockford, Ill.). For hydroxycitrate-related weight-loss experiments, autophagy-deficient Atg4b^−/− mice were used. Atg4b^−/− mice have been previously described (Mariño et al., 2010). For HC-, spermidine-, and resveratrol-related experiments (tumour growth) mice were intraperitoneally injected with respectively 100 mg/kg, 50 mg/kg and 100 mg/kg doses at day 8 and day 9. At day 9, mice were intraperitoneally injected with 2 mg/kg single dose of Mitoxanthrone. For starvation related experiment (tumour growth) mice were treated as previously described (Fabrizio et. al., 2010).
Six weeks old female C57BL/6, Balb/c and nude athymic mice (Harlan Laboratory, Gannat, France) were bred and maintained according to both the FELASA and the Animal Experimental Inserm Ethics Committee Guidelines (project: 2012-69). Mice were housed in a temperature-controlled environment with 12 h light/dark cycles and received food and water ad libitum. For tumor growth experiments, procedures adopted are described as follows: 3×10^5 tumor cells were subcutaneously inoculated; when tumors became palpable (day −1 before chemotherapy), mice were first intraperitoneally injected with 100 mg/kg Potassium Hydroxycitrate, 10 mg/kg Acetylsalicylic Acid, 30 mg/kg SB204990, 30 mg/kg c646, 5 mg/kg Rapamycin, 25 mg/kg Resveratrol, 50 mg/kg Spermidine. At day 0, mice were intraperitoneally injected with the abovementioned compounds and with 5.17 mg/Kg Mitoxanthrone or 5 mg/kg Oxaliplatin. Tumor size was measured every two days. For starvation experiments, mice underwent 48 hour fasting followed by intreperitoneal injection of chemotherapeutics. For autophagy induction study, 6 hours after CRMs administration, mice were sacrificed and tissues were snap-frozen in liquid nitrogen after extraction and homogenized two cycles for 20 s at 5,500 rpm using Precellys 24 tissue homogenator (Bertin Technologies, Montigny-le-Bretonneux, France) in a 20 mM Tris buffer (pH 7.4) containing 150 mM NaCl, 1% Triton X-100, 10 mM EDTA and Complete® protease inhibitor cocktail (Roche Applied Science, Penzberg, Germany). Tissue extracts were then centrifuged at 12,000 g at 4° C. and supernatants were collected. Protein concentration in the supernatants was evaluated by the bicinchoninic acid technique (BCA protein assay kit, Pierce Biotechnology, Rockford, US.

[4] = system: autophagy in mice tissues; test: Autophagy induction in tissues of fed mice (LC3 lipidation, p62, GFP-LC3 dots); format: in vivo
Description: as §1
To avoid post-mortem autophagy induction, dead mice were immediately perfused with 4% paraformaldehyde (w:v in PBS, pH 7.4). Tissues were then harvested and further fixed with the same solution for at least 4 h, followed by treatment with 15% sucrose (w:v in PBS) for 4 h and with 30% sucrose (w:v in PBS) overnight. Tissue samples were embedded in Tissue-Tek OCT compound (Sakura Finetechnical Co. Ltd., Tokyo, Japan) and stored at −70° C. Five μm-thick tissue sections were prepared with a CM3050 S cryostat (Leica Microsystems GmbH, Wetzlar, Germany), air-dried for 1 h, washed in PBS for 5 min, dried at RT for 30 min, and mounted with VECTASHIELD anti-fading medium. In each organ, the number of GFP-LC3 dots was counted in five independent visual fields from at least five mice using a TCS SP2 confocal fluorescence microscope (Leica Microsystems GmbH).
Six weeks old female C57BL/6, Balb/c and nude athymic mice (Harlan Laboratory, Gannat, France) were bred and maintained according to both the FELASA and the Animal Experimental Inserm Ethics Committee Guidelines (project: 2012-69). Mice were housed in a temperature-controlled environment with 12 h light/dark cycles and received food and water ad libitum. For tumor growth experiments, procedures adopted are described as follows: 3×10^5 tumor cells were subcutaneously inoculated; when tumors became palpable (day −1 before chemotherapy), mice were first intraperitoneally injected with 100 mg/kg Potassium Hydroxycitrate, 10 mg/kg Acetylsalicylic Acid, 30 mg/kg SB204990, 30 mg/kg c646, 5 mg/kg Rapamycin, 25 mg/kg Resveratrol, 50 mg/kg Spermidine. At day 0, mice were intraperitoneally injected with the abovementioned compounds and with 5.17 mg/Kg Mitoxanthrone or 5 mg/kg Oxaliplatin. Tumor size was measured every two days. For starvation experiments, mice underwent 48 hour fasting followed by intreperitoneal injection of chemotherapeutics. […]

[5] = chronic treatment; cited from earlier work

Q: Which “cellular ATP levels in starved cells” value (cellular ATP levels) does the source give for Cn1cnc(N)c2ncnc1-2 [3-MA, 3-methyladenine] here?
A: Its value is “similarly reduced ATP content”.

Q: With CC(=O)SCCNC(=O)CCNC(=O)[C@H](O)C(C)(C)COP(=O)(O)OP(=O)(O)OC[C@H]1O[C@@H](n2cnc3c(N)ncnc32)[C@H](O)[C@@H]1OP(=O)(O)O [AcCoA, acetyl-coenzyme A] as the compound, how does the “Hydroxycitrate-induced autophagy after microinjection” value [1] read?
A: Its value is “suppressed by microinjection of AcCoA”.

Q: And the “Hydroxycitrate-induced autophagy after microinjection” value ([1]; listed as Acetyl CoA)?
A: Its value is “inhibits Hydroxycitrate-induced autophagy”.

Q: And the “cytoplasmic protein acetylation after microinjection” value ([1]; starved cells)?
A: Its value is “increased the levels of cytoplasmic protein acetylation”.

Q: What about the “starvation-induced autophagic flux after microinjection” value ([1]; starved cells) of the same compound?
A: Its value is “reduced starvation-induced autophagic flux”.

Q: For O=C1c2c(O)ccc(O)c2C(=O)c2c(NCCNCCO)ccc(NCCNCCO)c21 [MTX, mitoxanthrone], which “mammary tumor growth, monotherapy” value [2] is on record?
A: The value was “had little effect”.

Q: With NC(=O)CC[C@H](N)C(=O)O [glutamine] as the compound, how does the “intracellular amino acid levels” value [3] read?
A: The value was “did increase cellular glutamate levels”.

Q: What does the source list for Oc1ccc(C=Cc2cc(O)cc(O)c2)cc1 [resveratrol]?
A: tumor growth, combined with MTX (MCA205 tumor): capable to recapitulate the positive combinatorial effect of starvation; also recorded: HC could be replaced; tumor growth, combined with MTX (MCA205 tumor; listed as Resveratrol): mimics the effects of 48 h fasting in delaying subcutaneous MCA205 tumor growth; tumor growth, combined with MTX, immunodeficient mice (MCA205 tumor): failed; autophagy in vivo (LC3 lipidation, p62, GFP-LC3) [4]: elicits autophagy in mice muscle after 6 hours

Q: What does the source list for NCCCCNCCCN [spermidine]?
A: tumor growth, combined with MTX (MCA205 tumor): capable to recapitulate the positive combinatorial effect of starvation; also recorded: HC could be replaced; tumor growth, combined with MTX (MCA205 tumor; listed as Spermidine): mimics the effects of 48 h fasting in delaying subcutaneous MCA205 tumor growth; also recorded: can enhance chemotherapy efficacy; tumor growth, combined with MTX, immunodeficient mice (MCA205 tumor): failed; health and life spans of mice [5]: extends the health and life spans of mice; autophagy in vivo (LC3 lipidation, p62, GFP-LC3) [4]: elicits autophagy in mice muscle after 6 hours
